{"source": "paper PMC10777851", "about": "“SMT-738: a novel small-molecule inhibitor of bacterial lipoprotein transport targeting Enterobacteriaceae” (Antimicrobial Agents and Chemotherapy, 2023)", "key": {"E. coli": {"system": "E. coli", "assay": "MIC by broth microdilution (CLSI) against E. coli", "assay_type": "cell-based, Escherichia coli", "method": "(§1) MIC tests were performed by broth microdilution in-line with CLSI susceptibility testing standards ([20], [21]) either in-house or at IHMA (Europe and USA) or JMI Laboratories using cation-adjusted Mueller Hinton Broth."}, "K. pneumoniae": {"system": "K. pneumoniae", "assay": "MIC by broth microdilution (CLSI) against K. pneumoniae", "assay_type": "cell-based, Klebsiella pneumoniae", "method": "as §1"}, "[1]": {"system": "two respiratory isolates (carrying NDM-5 and TEM-OSBL) from Russia in 2019", "assay": "MIC against two cefiderocol-resistant respiratory isolates", "assay_type": "cell-based", "method": "as §1"}, "[2]": {"system": "UPEC (E. coli NCTC 13441) LolC and LolE mutants", "assay": "MIC fold change of resistant LolC/LolE mutants, UPEC", "assay_type": "cell-based, Escherichia coli", "method": "as §1\nThe FoR of bacterial strains to test compounds was determined by plating aliquots of overnight cultures onto MH-agar plates containing dilutions of the test compound at various multiples of reference MIC as previously determined. Total viable counts of the overnight cultures were determined by spotting 10–20 µL of decimal dilutions in 1× phosphate-buffered saline (PBS) onto non-selective agar. Assay plates were incubated for up to 48 h with colonies being enumerated every 24 h. FoR was determined by dividing the number of colonies observed by the total number of viable cells plated. Representative colonies were then picked and streaked onto selective agar to confirm resistance and obtain resistant isolates. Isolates growing on selective agar were then used to initiate overnight cultures, bacteria pelleted by centrifugation, supernatant removed, and pellets stored at −80°C for subsequent DNA extraction and whole-genome sequencing. Genomic DNA was extracted using the DNeasy Blood and Tissue Kit (Qiagen), quantified using the Quant-iT TM PicoGreen TM dsDNA Assay Kit (Thermo Fisher Scientific), and normalized to 0.2 ng/µL in nuclease-free water. […]"}, "HepG2": {"system": "HepG2", "assay": "Cytotoxicity (CellTiter-Glo), HepG2", "assay_type": "cell-based", "details": "HepG2, 24 h", "method": "HepG2 (ATCC, HB-8065) and HEK293 (ATCC, CRL-1573) were sourced from ATCC. For the cytotoxicity assay, cells were seeded onto 96-well plates, which were then incubated for 24 h in a 5% CO2 incubator at 37°C. On the day of the assay, 10-point, twofold serial dilutions of test compound were prepared in assay media (MEM + 10% FBS) in separate 96-well plates. Assay plates were removed from the incubator, and the media from all of the wells were removed, taking care not to disturb the cell layer. Compound-containing assay media or control media were added to the relevant wells. Assay plates were returned to the 5% CO2 incubator at 37°C for 24 h. CellTiter-Glo reagent (Promega, G7570) was used to determine the viability of the cells."}, "[3]": {"system": "Renal proximal tubule epithelial cells", "assay": "Nephrotoxicity assay (cell health markers)", "assay_type": "cell-based", "details": "top concentration of 500 µM (= 196.85 µg/mL)", "method": "The standard nephrotoxicity assay was performed by Cyprotex, UK. Renal proximal tubule epithelial cells were exposed to a range of concentrations of compound, loaded with relevant dye/antibody for each cell health marker and scanned using a fluorescent cellular imager (ArrayScan, Thermo Scientific Cellomics). Cell health parameters that were analyzed: cell count, nuclear size, DNA structure, mitochondrial mass, mitochondrial membrane potential, phospholipidosis, glutathione content, and cellular ATP."}, "[4]": {"assay": "Pharmacokinetics after IV bolus in mice", "assay_type": "in vivo, male CD-1 mice", "details": "20-mg/kg bolus IV", "method": "Male CD-1 mice (from Charles River, Margate UK) were administered 20 mg/kg of SMT-738 via IV bolus route. At selected timepoints, blood, kidney tissue, lung tissue, and urine were collected and progressed for further analysis. The PK parameters included initial concentration (C 0) via extrapolation, clearance (CL), volume of distribution (V ss), and AUC0-t in plasma were determined using non-compartmental analysis. Tissue partitioning values were determined with ratio of AUC0-t,kidney/AUC0-t,plasma for kidney (K p,kidney) and ratio of AUC0-t,lung/AUC0-t,plasma for lung (K p,lung). The mean recovery (%) of SMT-738 unchanged in urine was determined by amount in urine compared to the intravenously administered dose. The study was conducted by Evotec Ltd (UK)."}, "Protein binding, mouse": {"assay": "Protein binding, mouse", "assay_type": "in vitro ADME"}, "Protein binding, rat": {"assay": "Protein binding, rat", "assay_type": "in vitro ADME"}, "Protein binding, human": {"assay": "Protein binding, human", "assay_type": "in vitro ADME"}, "[5]": {"system": "E. coli BAA 2469 (NDM-1 positive)", "assay": "Murine bloodstream infection model", "assay_type": "in vivo, male CD-1 mice", "details": "60-min IV infusion, readout 9 h, below the limit of detection", "method": "Male JVC-cannulated CD-1 mice were infected intraperitoneally with E. coli BAA2469. At t = 1 h and t = 6 h, SMT-738 was intravenously infused over 60 min (BID). The mice from the pre-treatment group were euthanized at 1 h post-infection. All remaining mice were euthanized at 9 h post-infection, and blood samples were collected via cardiac puncture. Blood samples were serially diluted in PBS and plated onto cystine-lactose-electrolyte-deficient (CLED) agar. The viable bacterial burden for each sample was determined following overnight incubation at 37°C. A Kruskal-Wallis statistical test was performed."}, "[6]": {"assay": "Solubility in formulation vehicle", "assay_type": "physicochemical", "details": "20% Hydroxypropyl-β-cyclodextrin or phosphate buffer pH 6.0"}, "[7]": {"details": "15 clinical MDR NDM isolates (NDM-1, NDM-4, NDM-5) from India (2018)"}, "[8]": {"details": "100 MDR clinical isolates incl. ESBL and CRE"}}, "note": "Values joined by “and” are separate entries in the source; they are usually repeats but may differ in a detail not shown here. Identical values can stand only once.", "data": [{"smiles": "Cc1cnccc1-c1[nH]c(N)nc1-c1ccc2c(c1)N(C(=O)C(C)(C)N)CCO2", "note": "[SMT-738]", "values": [{"measurement": "MIC Range E. coli (NDM)", "setting": "E. coli; [7]", "result": "0.25 to 1", "unit": "µg/mL"}, {"measurement": "MIC50 E. coli", "setting": "E. coli; [8]", "result": 0.5, "unit": "µg/mL"}, {"measurement": "MIC90 E. coli", "setting": "E. coli; [8]", "result": 1, "unit": "µg/mL"}, {"measurement": "MIC range E. coli", "setting": "E. coli; [8]", "result": "0.12 to 4", "unit": "µg/mL"}, {"measurement": "MIC", "setting": "E. coli; E. coli BAA 2469 (NDM-1 positive)", "result": 0.5, "unit": "µg/mL"}, {"measurement": "MIC (20% HS)", "setting": "E. coli; E. coli IHMA 2015405, 20% human serum", "result": 0.25, "unit": "µg/mL"}, {"measurement": "MIC (50% HS)", "setting": "E. coli; E. coli IHMA 2015405, 50% human serum", "result": 0.25, "unit": "µg/mL"}, {"measurement": "MIC (no HS)", "setting": "E. coli; E. coli IHMA 2015405, no human serum", "result": 0.5, "unit": "µg/mL"}, {"measurement": "MIC (20% HS)", "setting": "E. coli; E. coli IHMA 2051414, 20% human serum", "result": 0.5, "unit": "µg/mL"}, {"measurement": "MIC (50% HS)", "setting": "E. coli; E. coli IHMA 2051414, 50% human serum", "result": 0.5, "unit": "µg/mL"}, {"measurement": "MIC (no HS)", "setting": "E. coli; E. coli IHMA 2051414, no human serum", "result": 0.5, "unit": "µg/mL"}, {"measurement": "MIC", "setting": "E. coli; E. coli NCTC 13441 (UPEC, MDR, CTX-M-15 ESBL)", "result": "0.39 µM and 0.15 µg/mL"}, {"measurement": "MIC", "setting": "E. coli; E. coli UTI89", "result": 0.5, "unit": "µg/mL"}, {"measurement": "MICref", "setting": "E. coli; UPEC13441, reference MIC of the FoR experiments", "result": 0.3, "unit": "µg/mL"}, {"measurement": "MIC Range K. pneumoniae (NDM)", "setting": "K. pneumoniae; [7]", "result": "0.5 to 1", "unit": "µg/mL"}, {"measurement": "MIC50 K. pneumoniae", "setting": "K. pneumoniae; [8]", "result": 1, "unit": "µg/mL"}, {"measurement": "MIC90 K. pneumoniae", "setting": "K. pneumoniae; [8]", "result": 2, "unit": "µg/mL"}, {"measurement": "MIC range K. pneumoniae", "setting": "K. pneumoniae; [8]", "result": "0.25 to 8", "unit": "µg/mL"}, {"measurement": "MIC", "setting": "K. pneumoniae; K. pneumoniae ATCC 43816", "result": 0.5, "unit": "µg/mL"}, {"measurement": "MIC (20% HS)", "setting": "K. pneumoniae; K. pneumoniae IHMA 1769429, 20% human serum", "result": 1, "unit": "µg/mL"}, {"measurement": "MIC (50% HS)", "setting": "K. pneumoniae; K. pneumoniae IHMA 1769429, 50% human serum", "result": 2, "unit": "µg/mL"}, {"measurement": "MIC (no HS)", "setting": "K. pneumoniae; K. pneumoniae IHMA 1769429, no human serum", "result": 2, "unit": "µg/mL"}, {"measurement": "MIC (20% HS)", "setting": "K. pneumoniae; K. pneumoniae IHMA 1770556, 20% human serum", "result": 0.5, "unit": "µg/mL"}, {"measurement": "MIC (50% HS)", "setting": "K. pneumoniae; K. pneumoniae IHMA 1770556, 50% human serum", "result": 1, "unit": "µg/mL"}, {"measurement": "MIC (no HS)", "setting": "K. pneumoniae; K. pneumoniae IHMA 1770556, no human serum", "result": 1, "unit": "µg/mL"}, {"measurement": "MIC", "setting": "K. pneumoniae; K. pneumoniae NCTC 13438 (MDR, Class A KPC)", "result": "1.56 µM and 0.61 µg/mL"}, {"measurement": "MICref", "setting": "K. pneumoniae; Kpm13438, reference MIC of the FoR experiments", "result": "3.13 µM and 1.22 µg/mL"}, {"measurement": "MIC", "setting": "[1]; first of the two respiratory isolates", "result": 0.25, "unit": "µg/mL"}, {"measurement": "MIC", "setting": "[1]; second of the two respiratory isolates", "result": 0.5, "unit": "µg/mL"}, {"measurement": "MIC fold change increase", "setting": "[2]; LolC L256R mutant", "result": "L256R (16×)"}, {"measurement": "MIC fold change increase", "setting": "[2]; LolE D264A mutant", "result": "D264A (128×)"}, {"measurement": "IC50", "setting": "HepG2", "result": "> 200", "unit": "µM"}, {"measurement": "cytotoxicity IC50", "setting": "HepG2", "result": "> 78.74", "unit": "µg/mL"}, {"measurement": "nephrotoxicity", "setting": "[3]", "result": "No toxicity was observed"}, {"measurement": "Kp,kidney", "setting": "[4]; AUC0-t,kidney/AUC0-t,plasma", "result": 44.8}, {"measurement": "Kp,lung", "setting": "[4]; AUC0-t,lung/AUC0-t,plasma", "result": 8.1}, {"measurement": "eliminated unchanged into the urine", "setting": "[4]; over a 24-h period", "result": "approximately 29.5%"}, {"measurement": "CL", "setting": "[4]; plasma", "result": 59, "unit": "mL/min/kg"}, {"measurement": "Vss", "setting": "[4]; plasma", "result": 4.3, "unit": "L/kg"}, {"measurement": "C0", "setting": "[4]; plasma, via extrapolation", "result": "18,386 ng/mL"}, {"measurement": "protein binding", "setting": "Protein binding, mouse", "result": 66.9, "unit": "%"}, {"measurement": "protein binding", "setting": "Protein binding, rat", "result": 64.4, "unit": "%"}, {"measurement": "protein binding", "setting": "Protein binding, human", "result": 62.7, "unit": "%"}, {"measurement": "efficacy in the blood", "setting": "[5]; 10 mg/kg BID", "result": "almost as efficacious as the 20 mg/kg BID dose"}, {"measurement": "reduction of bacterial burden compared to pre-treatment", "setting": "[5]; blood, 20 mg/kg BID", "result": 4, "unit": "log10"}, {"measurement": "Solubility", "setting": "[6]", "result": "> 20", "unit": "mg/mL"}]}]}
